# Literature values as cited in patent US8372991B2, “Trisubstituted thiophenes that modulate intracellular calcium” (Calcimedica, Inc., priority 2008, dated 2013).
# Tests used:
# [1] = biological target: STIM1 and Orai1 in human embryonic kidney 293 cells (HEK293 cells) (Homo sapiens, UniProt Q96D31); details: HEK293 co-expressing STIM1 and Orai1; cited from earlier work
# Jurkat cells = Jurkat cells and colon cancer cells; cited from earlier work
# Chain of STIM1 and Orai1 in human embryonic kidney 293 cells (HEK293 cells) (Q96D31 whole entry): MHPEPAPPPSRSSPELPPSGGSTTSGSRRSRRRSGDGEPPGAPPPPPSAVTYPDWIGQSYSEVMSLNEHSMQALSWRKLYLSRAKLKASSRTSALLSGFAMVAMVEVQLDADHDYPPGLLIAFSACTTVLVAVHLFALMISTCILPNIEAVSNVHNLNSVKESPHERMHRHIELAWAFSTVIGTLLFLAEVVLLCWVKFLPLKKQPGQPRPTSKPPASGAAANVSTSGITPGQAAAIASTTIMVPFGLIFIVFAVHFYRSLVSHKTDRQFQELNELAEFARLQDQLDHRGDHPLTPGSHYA
SMILES,block of store-dependent Ca2+ entry [1],inhibition of SOCE (Jurkat cells),inhibition of proliferation (Jurkat cells)
NCCOB(c1ccccc1)c1ccccc1 [2-aminoethoxydiphenylborate],completely blocked,,
Cc1nnsc1C(=O)Nc1ccc(-n2nc(C(F)(F)F)cc2C(F)(F)F)cc1 [BTP-2],,inhibits,inhibits
